Laboratory results: US20080026992A1, “Tyrosine Phosphorylation of Cdk Inhibitor Proteins of the Cip/Kip Family” (priority 2003, published 2008)

Key:
Assay type in all cases: cell-based, human
[1] = system: Lyn; assay: p27 Tyr-88 phosphorylation in 293T cells transfected with Lyn (Western blot, anti-phospho-Y88); conditions: 10 μM STI-571
Protocol: (§1) HA-tagged p27 was transfected in 293T cells with a Bcr-Abl or Lyn encoding plasmids. […] Equal amounts of cell lysates were analyzed by Western blotting with monoclonal anti-phospho-Y88 antibodies and HRP-conjugated anti-p27 antibodies as indicated. b. […] Western blot analysis was performed with monoclonal anti-phospho-Y88 and HRP-conjugated anti-p27 antibodies. c. […] Cells (1×10^7/ml) were labeled with a ^35S labeled methionine/cysteine mix for 1 hour, and subsequently incubated in the absence of radioactivity for the indicated times. p27 was immunoprecipitated using anti-p27 antibodies. The labeled protein was visualized by autoradiography. The intensity of the bands was determined using a PhosphorImager and is expressed as a fraction of the time point 0. […] One representative experiment is shown.

[2] = system: K562 cells; assay: p27 protein level in K562 cells (Western blot); conditions: 2 or 10 μM STI-571 for 16 hours
Protocol: as §1
(§2) Tyr-88 phosphorylation of p27 in a Bcr-Abl transformed tumor cell line was investigated next. K562 chronic myelogenous leukaemia cells express p210 Bcr-Abl kinase that is sensitive to inhibition with ST-571.

[3] = system: K562 cells; assay: p27 stability in K562 cells (35S pulse-chase); conditions: 10 μM STI-571 for 16 hours
Protocol: as §1, §2

[4] = system: K562 cells; assay: Cell cycle analysis by flow cytometry (BrdU/PI) of transfected K562 CML cells; conditions: moderate expression, 48 hours after transfection, GFP-sorted
Protocol: FIG. 9: p27 Y88F arrests K562 CML cells in G1 phase of the cell cycle. K562 CML cells were transfected with GFP and either 25 ug of p27 or 25 ug of p27-Y88F expression vector. 48 hours after transfection, cells with similar GFP expression level were isolated by flow cytometry cell sorting and the cell cycle distribution of these cells was determined using BrdU incorporation and PI staining. The distribution of these cells in the cell cycle phases is shown. Only p27-Y88F expression leads to an accumulation of G1 phase cells and reduced cells in S-phase.
The percentage of cells in the G1, S and G2/M phases of the cell cycle was determined by two dimensional flow cytometry. The DNA content was determined by staining DNA with the intercalating dye propidium iodide and quantifying the cell fractions with differing DNA content by flow cytometry. In addition, cells in S-phase were labelled with the nucleotide analog bromo 5-bromo-2′-deoxyuridine (BrdU), which is incorporated into newly synthesized DNA. […] Cells were analyzed on FACS ([…] Dickinson) flow cytometer using the CellQuest software. […]

For `Cc1ccc(NC(=O)c2ccc(CN3CCN(C)CC3)cc2)cc1Nc1nccc(-c2cccnc2)n1` [STI-571, 4-[(4-Methyl-1-piperazinyl)methyl]-N-[4-methyl-3-[[4-(3-pyridinyl)-2-pyrimidinyl]amino]-phenyl] benzamide methane sulfonate], the “Tyr-88 phosphorylation of p27 by Lyn” value [1] was “no effect”, the p27 protein level [2] was “dramatic increase” and the p27 stability [3] was “increase”.

With “p27-Y88F: mutant of p27 where tyrosine 88 is exchanged to phenylalanine” the S-phase entry [4] was “impaired” and the “effect on cell cycle / accumulation of cells in G1 phase” value [4] was “increasing cells accumulating in G1 phase”.
